From ChEMBL document CHEMBL3875182 (Bioorg Med Chem, 2017)
≈ marks a conversion by molar mass, not a printed value.

How the values were obtained:
[1] = system: Mycobacterium tuberculosis; assay: Antibacterial activity against rifampin-resistant Mycobacterium tuberculosis after 8 to 9 days by BacT/Alert MP bottle assay; type: functional
[2] = system: Mycobacterium tuberculosis; assay: Antibacterial activity against isoniazid/rifampin-resistant Mycobacterium tuberculosis after 8 to 9 days by BacT/Alert MP bottle assay; type: functional

Compound | MIC [1] | MIC [2]
COc1ccc(C2=Nn3c(nnc3-c3ccncc3)SC2)cc1 | 2 µg/mL (≈ 6.18 µM) | 4 µg/mL (≈ 12.4 µM)
O=[N+]([O-])c1ccc(C2=Nn3c(nnc3-c3ccc(Br)cc3)SC2)cc1 | 0.25 µg/mL (≈ 0.601 µM) | 2 µg/mL (≈ 4.8 µM)
c1ccc(C2=Nn3c(nnc3-c3ccccc3)SC2)cc1 | 2 µg/mL (≈ 6.84 µM) | 4 µg/mL (≈ 13.7 µM)
O=[N+]([O-])c1ccc(C2=Nn3c(Cc4ccc5ccccc5c4)nnc3SC2)cc1 | 4 µg/mL (≈ 9.96 µM) | 4 µg/mL (≈ 9.96 µM)
O=[N+]([O-])c1ccc(C2=Nn3c(nnc3-c3ccncc3F)SC2)cc1 | 2 µg/mL (≈ 5.61 µM) | 4 µg/mL (≈ 11.2 µM)
Fc1ccc(-c2nnc3sc(COc4ccccc4)nn23)cc1 | 8 µg/mL (≈ 24.5 µM) | 8 µg/mL (≈ 24.5 µM)
Brc1ccc(-c2nnc3n2N=C(c2ccccc2)CS3)cc1 | 1 µg/mL (≈ 2.69 µM) | 2 µg/mL (≈ 5.39 µM)
NNC(=O)c1ccncc1 [ISONIAZID] | 1 µg/mL (≈ 7.29 µM) | 4 µg/mL (≈ 29.2 µM)
CO[C@H]1/C=C/O[C@@]2(C)Oc3c(C)c(O)c4c(O)c(c(/C=N/N5CCN(C)CC5)c(O)c4c3C2=O)NC(=O)/C(C)=C\C=C\[C@H](C)[C@H](O)[C@@H](C)[C@@H](O)[C@@H](C)[C@H](OC(C)=O)[C@@H]1C [RIFAMPIN] | 16 µg/mL (≈ 19.4 µM) | ≥ 16 µg/mL
